In ChEMBL document CHEMBL1138909, “Structure-activity studies of oxazolidinone analogs as RNA-binding agents” (Bioorg Med Chem Lett, 2006):
The source made the active and inactive calls. No cut-off for these calls is given here.

Experiments:
Type in all cases: nucleic-acid assay
[1] = target: Nucleic Acid; experiment: Binding activity at antiterminator RNA AM1A after 10 mins
[2] = target: Nucleic Acid; experiment: Binding activity at antiterminator RNA AM1A(C11U) after 120 mins
[3] = system: Nucleic Acid; experiment: Binding activity at antiterminator RNA AM1A(C11U) after 10 mins
[4] = system: Nucleic Acid; experiment: Binding activity at antiterminator RNA AM1A relative to methyl 2-((4R,5S)-4-benzyl-2-oxo-5-((2-phenylacetoxy)methyl)oxazolidin-3-yl)benzoate after 10 mins
[5] = system: Nucleic Acid; experiment: Binding activity at antiterminator RNA AM1A(C11U) upto 200 uM after 10 mins
[6] = system: Nucleic Acid; experiment: Binding activity at antiterminator RNA AM1A upto 200 uM after 10 mins

| SMILES | Activity [3] | Activity [4] | further results |
| --- | --- | --- | --- |
| CCCCCCC(=O)OC[C@H]1OC(=O)N[C@@H]1Cc1ccccc1 | – | – | Kd [1]: 10 µM; Kd [2]: 14.3 µM |
| CCCCCCCC(=O)OC[C@H]1OC(=O)N(c2ccccc2C(=O)OC)[C@@H]1Cc1ccccc1 | 1.06 | 1.19 | – |
| CCCCCCCC(=O)OC[C@H]1OC(=O)N(c2ccc(OC)cc2)[C@@H]1CC1CCCCC1 | 0.78 | 0.58 | – |
| CCCCN1C(=O)O[C@H](COC(=O)Cc2ccccc2)[C@H]1CCCc1ccccc1 | 0.7 | 0.72 | – |
| COc1ccc(N2C(=O)O[C@H](COC(=O)Cc3ccccc3)[C@H]2CCCc2ccccc2)cc1 | – | 0.75 | – |
| CCCCCCCC(=O)OC[C@H]1OC(=O)N(c2ccccc2C(=O)OC)[C@@H]1CCCc1ccccc1 | 0.76 | 1.21 | – |
| COC(=O)c1ccccc1N1C(=O)O[C@H](COC(=O)Cc2ccccc2)[C@H]1CCCc1ccccc1 | 1.12 | 0.79 | – |
| COC(=O)c1ccccc1N1C(=O)O[C@H](COC(=O)C2CCCCC2)[C@H]1CC1CCCCC1 | 0.8 | 0.61 | – |
| COC(=O)c1ccccc1N1C(=O)O[C@H](COC(=O)C2CCCCC2)[C@H]1CCCc1ccccc1 | 0.78 | 0.71 | – |
| COc1ccc(N2C(=O)O[C@H](COC(=O)C3CCCCC3)[C@H]2CCCc2ccccc2)cc1 | 0.7 | 0.64 | – |
| COC(=O)c1ccccc1N1C(=O)O[C@H](COC(=O)Cc2ccccc2)[C@H]1CC1CCCCC1 | 0.77 | 0.39 | – |
| CCCCN1C(=O)O[C@H](COC(=O)C2CCCCC2)[C@H]1CC1CCCCC1 | 0.7 | 0.54 | – |
| CCCCCCCC(=O)OC[C@H]1OC(=O)N(CCCC)[C@@H]1Cc1ccccc1 | 1.37 | 1.16 | – |
| CCCCN1C(=O)O[C@H](COC(=O)Cc2ccccc2)[C@H]1Cc1ccccc1 | 0.36 | 0.48 | – |
| CCCCCCCC(=O)OC[C@H]1OC(=O)N(CCCC)[C@@H]1CC1CCCCC1 | 1.05 | 0.73 | – |
| CCCCCCCC(=O)OC[C@H]1OC(=O)N[C@@H]1Cc1ccccc1 | – | – | Activity [5]: inactive; Activity [6]: inactive |
| CCCCCCCC(=O)OC[C@H]1OC(=O)N(c2ccc(OC)cc2)[C@@H]1CCCc1ccccc1 | 0.72 | 0.65 | – |
| CCCCCCCC(=O)OC[C@H]1OC(=O)N(c2ccccc2C(=O)OC)[C@@H]1CC1CCCCC1 | 0.97 | 0.47 | – |
| CCCCN1C(=O)O[C@H](COC(=O)Cc2ccccc2)[C@H]1CC1CCCCC1 | 0.78 | 0.58 | – |
| CCCCN1C(=O)O[C@H](COC(=O)C2CCCCC2)[C@H]1Cc1ccccc1 | 0.59 | 0.48 | – |
| COC(=O)c1ccccc1N1C(=O)O[C@H](COC(=O)C2CCCCC2)[C@H]1Cc1ccccc1 | 1.19 | 0.64 | – |
| COc1ccc(N2C(=O)O[C@H](COC(=O)C3CCCCC3)[C@H]2Cc2ccccc2)cc1 | 0.77 | 0.73 | – |
| CCCCCCCC(=O)OC[C@H]1OC(=O)N(CCCC)[C@@H]1CCCc1ccccc1 | 0.69 | 0.56 | – |
| CCCCCCCC(=O)OC[C@H]1OC(=O)N(c2ccc(OC)cc2)[C@@H]1Cc1ccccc1 | 0.68 | 0.43 | – |
| COC(=O)c1ccccc1N1C(=O)O[C@H](COC(=O)Cc2ccccc2)[C@H]1Cc1ccccc1 | 1.47 | – | Activity [1]: 1 |
| CCCCN1C(=O)O[C@H](COC(=O)C2CCCCC2)[C@H]1CCCc1ccccc1 | 0.78 | 0.65 | – |
| COc1ccc(N2C(=O)O[C@H](COC(=O)Cc3ccccc3)[C@H]2CC2CCCCC2)cc1 | 1.05 | 0.71 | – |
| O=C(Cc1ccccc1)OC[C@H]1OC(=O)N[C@@H]1Cc1ccccc1 | – | – | Kd [1]: 9 µM; Kd [3]: 125 µM |
| COc1ccc(N2C(=O)O[C@H](COC(=O)Cc3ccccc3)[C@H]2Cc2ccccc2)cc1 | 0.23 | 0.81 | Kd [1]: 3.4 µM; Kd [3]: 25 µM |
| COc1ccc(N2C(=O)O[C@H](COC(=O)C3CCCCC3)[C@H]2CC2CCCCC2)cc1 | 0.82 | 0.61 | – |
